Key:
[1] = target: GSK3b (Homo sapiens, UniProt P49841); settings: cell-free
Method: (§1) The tyrosine kinase activities were determined using enzyme-linked immunosorbant assay (ELISA). The serine/threonine kinase activities were detected by Caliper Mobility Shift Assay on EZ Reader (Caliper Life Sciences, MA) according to the instruction.
(§2) The kinase domain of EGFR, ErbB-2, IGF1R, VEGFR2, FGFR1, PDGFRα, c-Src, c-Met, RON, c-Kit, EphA2 and EphB2 were expressed using the Bac-to-Bac^TM baculovirus expression system (Invitrogen, Carlsbad, CA, USA) and purified on Ni-NTA columns (QIAGEN Inc., Valencia, CA, USA). VEGFR1, PDGFRβ and c-Abl were purchased from Upstate Biotechnology Inc. (Charlottesville, Virginia, USA). […] EGF was purchased from R&D, Minneapolis, […]. Poly(Glu-Tyr)(4:1), the substrate of tyrosine kinase, was from Sigma-Aldrich Corp. St. Louis, MO, USA.

[2] = target: AKT1 (Homo sapiens, UniProt P31749); settings: AKT1, cell-free
Chain of AKT1 (P31749 whole entry): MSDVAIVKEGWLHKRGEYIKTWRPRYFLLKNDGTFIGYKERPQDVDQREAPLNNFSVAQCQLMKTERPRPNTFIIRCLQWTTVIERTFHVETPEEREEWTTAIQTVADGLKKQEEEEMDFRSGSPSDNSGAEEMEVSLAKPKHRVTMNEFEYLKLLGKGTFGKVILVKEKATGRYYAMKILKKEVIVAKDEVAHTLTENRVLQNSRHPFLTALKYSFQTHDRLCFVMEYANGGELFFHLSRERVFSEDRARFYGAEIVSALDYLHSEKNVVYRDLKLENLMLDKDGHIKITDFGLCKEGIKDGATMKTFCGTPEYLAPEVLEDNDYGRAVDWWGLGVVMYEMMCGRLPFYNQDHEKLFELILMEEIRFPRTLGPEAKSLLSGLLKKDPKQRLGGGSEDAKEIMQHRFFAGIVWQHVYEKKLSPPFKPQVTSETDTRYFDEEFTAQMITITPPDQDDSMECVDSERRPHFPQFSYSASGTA
Method: as §1, §2

[3] = target: AUR A (Homo sapiens, UniProt O14965); settings: cell-free
Method: as §1, §2

[4] = target: CDK2 (Homo sapiens, UniProt P24941); settings: CDK2, cell-free
Method: as §1, §2

[5] = target: PKCb2 (Homo sapiens, UniProt P05771); settings: PKCb2, cell-free
Method: as §1, §2

[6] = target: p70S6K (Homo sapiens, UniProt P23443); settings: cell-free
Method: as §1, §2

[7] = target: Pim2 (Homo sapiens, UniProt Q9P1W9); settings: Pim2, cell-free
Method: as §1, §2

[8] = system: EGFR phosphorylation in A549 cells; assay: Western blot of EGF-induced EGFR phosphorylation; assay type: cell-based, human; settings: 0.01 µM, 4 h, EGF 50 ng/ml 15 min
[9] = target: T1, EGFR T790M/L858R (Homo sapiens, UniProt P00533, L858R/T790M); assay: In vitro tyrosine kinase assay (ELISA); assay type: biochemical; settings: EGFR T790M/L858R double mutant, cell-free; means ± SD
T1 construct: purchased Cell Signaling Technology Inc
Method: as §1, §2
The tyrosine kinase activities were determined in 96-well ELISA plates (Corning, NY, USA) precoated with 20 μg/mL Poly (Glu,Tyr)4:1. First, 80 μL of 5 μM ATP solution diluted in kinase reaction buffer (50 mM HEPES pH 7.4, 20 mM MgCl2, 0.1 mM MnCl2, 0.2 mM Na3VO4, 1 mM DTT) was added to each well. […] Subsequently, the kinase reaction was initiated by the addition of purified tyrosine kinase proteins diluted in 10 μL of kinase reaction buffer solution. Experiments at each concentration were performed in duplicate. […]

[10] = target: EGFR (Homo sapiens, UniProt P00533); settings: cell-free, means ± SD
Method: as §1, §2
(§3) The tyrosine kinase activities were determined in 96-well ELISA plates (Corning, NY, USA) precoated with 20 μg/mL Poly (Glu,Tyr)4:1. First, 80 μL of 5 μM ATP solution diluted in kinase reaction buffer (50 mM HEPES pH 7.4, 20 mM MgCl2, 0.1 mM MnCl2, 0.2 mM Na3VO4, 1 mM DTT) was added to each well. […] Subsequently, the kinase reaction was initiated by the addition of purified tyrosine kinase proteins diluted in 10 μL of kinase reaction buffer solution. Experiments at each concentration were performed in duplicate. After incubation for 60 min at 37 °C, the plate was washed three times with phosphate buffered saline (PBS) containing 0.1% Tween 20 (T-PBS). Next, 100 μL anti-phosphotyrosine antibody (PY99, 1:500 dilution) diluted in T-PBS containing 5 mg/mL BSA was added. After 30 min incubation at 37 °C, the plate was washed three times as before. Horseradish peroxidase-conjugated goat anti-mouse IgG (100 μL) diluted 1:2000 in T-PBS containing 5 mg/ml BSA was added. The plate was reincubated at 37 °C for 30 min, and then washed with PBS.

[11] = target: KDR (Homo sapiens, UniProt P35968); settings: cell-free
Method: as §1, §2, §3

[12] = target: c-Kit (Homo sapiens, UniProt P10721); settings: cell-free
Method: as §1, §2, §3

[13] = target: FGFR1 (Homo sapiens, UniProt P11362); settings: FGFR1, cell-free
Chain of FGFR1 (P11362 478-767 limits assumed): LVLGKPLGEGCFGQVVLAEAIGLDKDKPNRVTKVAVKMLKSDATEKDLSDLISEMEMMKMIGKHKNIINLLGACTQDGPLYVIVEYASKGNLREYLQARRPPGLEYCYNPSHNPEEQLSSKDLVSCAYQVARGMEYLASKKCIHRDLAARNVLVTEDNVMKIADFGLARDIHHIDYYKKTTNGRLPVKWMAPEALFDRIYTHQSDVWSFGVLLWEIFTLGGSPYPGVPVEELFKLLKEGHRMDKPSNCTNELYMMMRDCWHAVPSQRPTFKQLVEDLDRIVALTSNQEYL
Method: as §1, §2, §3

[14] = target: RON (Homo sapiens, UniProt Q04912); settings: cell-free
Method: as §1, §2, §3

[15] = target: SYK (Homo sapiens, UniProt P43405); settings: cell-free
Method: as §1, §2, §3

[16] = target: c-Src (Homo sapiens, UniProt P12931); settings: cell-free
Chain of c-Src (P12931 270-523 limits assumed): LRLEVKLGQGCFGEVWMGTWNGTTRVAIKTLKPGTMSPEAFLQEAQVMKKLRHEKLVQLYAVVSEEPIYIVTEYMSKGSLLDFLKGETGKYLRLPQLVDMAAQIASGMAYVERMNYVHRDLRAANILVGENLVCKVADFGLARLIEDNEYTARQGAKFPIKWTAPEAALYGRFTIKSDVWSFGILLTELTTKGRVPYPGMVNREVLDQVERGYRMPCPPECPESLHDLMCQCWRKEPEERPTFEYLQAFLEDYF
Method: as §1, §2, §3

[17] = target: IGF1R (Homo sapiens, UniProt P08069); settings: cell-free
Method: as §1, §2, §3

[18] = target: Tie2 (Homo sapiens, UniProt Q02763); settings: Tie2, cell-free
Chain of Tie2 (Q02763 23-1124): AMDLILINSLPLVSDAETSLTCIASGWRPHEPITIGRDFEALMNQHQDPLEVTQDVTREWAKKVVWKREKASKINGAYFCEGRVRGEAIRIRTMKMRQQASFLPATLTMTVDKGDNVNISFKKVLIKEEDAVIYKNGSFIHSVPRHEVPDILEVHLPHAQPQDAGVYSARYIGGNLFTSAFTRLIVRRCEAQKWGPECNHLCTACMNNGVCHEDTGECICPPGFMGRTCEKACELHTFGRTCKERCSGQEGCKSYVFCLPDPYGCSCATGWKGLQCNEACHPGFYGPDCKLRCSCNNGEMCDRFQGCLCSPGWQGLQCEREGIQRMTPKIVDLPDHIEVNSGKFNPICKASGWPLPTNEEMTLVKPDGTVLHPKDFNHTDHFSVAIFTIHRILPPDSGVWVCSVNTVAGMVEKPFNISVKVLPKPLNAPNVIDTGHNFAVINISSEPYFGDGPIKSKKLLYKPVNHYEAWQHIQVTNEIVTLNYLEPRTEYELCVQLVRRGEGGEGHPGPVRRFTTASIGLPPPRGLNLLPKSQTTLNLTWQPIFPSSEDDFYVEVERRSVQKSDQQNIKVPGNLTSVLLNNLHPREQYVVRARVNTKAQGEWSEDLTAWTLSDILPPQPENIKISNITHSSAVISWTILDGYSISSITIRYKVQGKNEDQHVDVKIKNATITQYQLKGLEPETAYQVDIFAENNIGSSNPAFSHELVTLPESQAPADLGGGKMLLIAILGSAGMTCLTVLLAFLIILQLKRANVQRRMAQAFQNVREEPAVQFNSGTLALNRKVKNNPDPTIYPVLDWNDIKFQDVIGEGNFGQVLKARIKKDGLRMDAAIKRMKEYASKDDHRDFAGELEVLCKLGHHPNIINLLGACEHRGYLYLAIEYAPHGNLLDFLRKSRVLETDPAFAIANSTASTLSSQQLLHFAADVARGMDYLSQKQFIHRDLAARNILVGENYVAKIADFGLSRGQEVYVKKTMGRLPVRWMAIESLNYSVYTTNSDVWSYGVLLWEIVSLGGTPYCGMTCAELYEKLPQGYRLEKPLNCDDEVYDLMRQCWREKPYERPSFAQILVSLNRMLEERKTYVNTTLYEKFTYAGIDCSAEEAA
Method: as §1, §2, §3

[19] = target: EphA2 (Homo sapiens, UniProt P29317); settings: EphA2, cell-free
Method: as §1, §2, §3

[20] = target: JAK2 (Homo sapiens, UniProt O60674); settings: JAK2, cell-free
Method: as §1, §2, §3

[21] = target: Flt-1 (Homo sapiens, UniProt P17948); settings: Flt-1, cell-free
Chain of Flt-1 (P17948 27-1338): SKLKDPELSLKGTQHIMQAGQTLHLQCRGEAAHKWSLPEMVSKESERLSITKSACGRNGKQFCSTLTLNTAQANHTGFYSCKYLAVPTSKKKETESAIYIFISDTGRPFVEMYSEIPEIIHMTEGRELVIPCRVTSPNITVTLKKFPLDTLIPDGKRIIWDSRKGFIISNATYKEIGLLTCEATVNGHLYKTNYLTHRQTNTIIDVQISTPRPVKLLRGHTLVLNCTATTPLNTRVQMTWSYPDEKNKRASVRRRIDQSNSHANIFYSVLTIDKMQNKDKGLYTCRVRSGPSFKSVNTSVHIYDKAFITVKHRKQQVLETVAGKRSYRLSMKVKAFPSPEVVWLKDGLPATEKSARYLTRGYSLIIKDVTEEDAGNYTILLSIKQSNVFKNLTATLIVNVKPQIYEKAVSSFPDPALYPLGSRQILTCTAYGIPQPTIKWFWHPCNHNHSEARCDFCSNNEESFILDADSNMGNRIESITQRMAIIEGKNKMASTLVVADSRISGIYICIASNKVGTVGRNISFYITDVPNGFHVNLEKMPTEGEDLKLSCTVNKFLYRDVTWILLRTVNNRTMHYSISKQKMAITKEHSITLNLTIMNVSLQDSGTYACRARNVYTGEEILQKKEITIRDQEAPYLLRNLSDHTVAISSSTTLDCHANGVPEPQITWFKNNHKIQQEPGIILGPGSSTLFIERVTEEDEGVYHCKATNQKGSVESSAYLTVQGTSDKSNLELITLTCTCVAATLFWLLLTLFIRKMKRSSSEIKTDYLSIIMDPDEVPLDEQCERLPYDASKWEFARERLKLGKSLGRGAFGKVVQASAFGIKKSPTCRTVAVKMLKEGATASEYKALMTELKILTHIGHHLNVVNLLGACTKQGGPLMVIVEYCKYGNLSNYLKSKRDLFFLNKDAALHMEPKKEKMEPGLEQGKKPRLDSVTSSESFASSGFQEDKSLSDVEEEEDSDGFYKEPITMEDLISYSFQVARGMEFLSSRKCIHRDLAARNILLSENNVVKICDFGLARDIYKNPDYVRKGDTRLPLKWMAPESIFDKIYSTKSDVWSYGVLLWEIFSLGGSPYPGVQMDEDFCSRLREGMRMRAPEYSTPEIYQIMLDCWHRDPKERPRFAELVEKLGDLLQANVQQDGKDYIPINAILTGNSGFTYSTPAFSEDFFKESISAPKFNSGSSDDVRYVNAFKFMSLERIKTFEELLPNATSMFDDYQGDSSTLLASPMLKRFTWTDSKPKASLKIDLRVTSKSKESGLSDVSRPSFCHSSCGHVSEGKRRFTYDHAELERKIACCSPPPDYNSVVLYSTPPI
Method: as §1, §2, §3

[22] = target: PDGFRα (Homo sapiens, UniProt P16234); settings: cell-free
Method: as §1, §2, §3

[23] = target: EphB2 (Homo sapiens, UniProt P29323); settings: EphB2, cell-free
Method: as §1, §2, §3

[24] = target: PDGFRβ (Homo sapiens, UniProt P09619); settings: cell-free
Method: as §1, §2, §3

[25] = target: Abl (Homo sapiens, UniProt P00519); settings: cell-free
Chain of Abl (P00519 whole entry, species assumed): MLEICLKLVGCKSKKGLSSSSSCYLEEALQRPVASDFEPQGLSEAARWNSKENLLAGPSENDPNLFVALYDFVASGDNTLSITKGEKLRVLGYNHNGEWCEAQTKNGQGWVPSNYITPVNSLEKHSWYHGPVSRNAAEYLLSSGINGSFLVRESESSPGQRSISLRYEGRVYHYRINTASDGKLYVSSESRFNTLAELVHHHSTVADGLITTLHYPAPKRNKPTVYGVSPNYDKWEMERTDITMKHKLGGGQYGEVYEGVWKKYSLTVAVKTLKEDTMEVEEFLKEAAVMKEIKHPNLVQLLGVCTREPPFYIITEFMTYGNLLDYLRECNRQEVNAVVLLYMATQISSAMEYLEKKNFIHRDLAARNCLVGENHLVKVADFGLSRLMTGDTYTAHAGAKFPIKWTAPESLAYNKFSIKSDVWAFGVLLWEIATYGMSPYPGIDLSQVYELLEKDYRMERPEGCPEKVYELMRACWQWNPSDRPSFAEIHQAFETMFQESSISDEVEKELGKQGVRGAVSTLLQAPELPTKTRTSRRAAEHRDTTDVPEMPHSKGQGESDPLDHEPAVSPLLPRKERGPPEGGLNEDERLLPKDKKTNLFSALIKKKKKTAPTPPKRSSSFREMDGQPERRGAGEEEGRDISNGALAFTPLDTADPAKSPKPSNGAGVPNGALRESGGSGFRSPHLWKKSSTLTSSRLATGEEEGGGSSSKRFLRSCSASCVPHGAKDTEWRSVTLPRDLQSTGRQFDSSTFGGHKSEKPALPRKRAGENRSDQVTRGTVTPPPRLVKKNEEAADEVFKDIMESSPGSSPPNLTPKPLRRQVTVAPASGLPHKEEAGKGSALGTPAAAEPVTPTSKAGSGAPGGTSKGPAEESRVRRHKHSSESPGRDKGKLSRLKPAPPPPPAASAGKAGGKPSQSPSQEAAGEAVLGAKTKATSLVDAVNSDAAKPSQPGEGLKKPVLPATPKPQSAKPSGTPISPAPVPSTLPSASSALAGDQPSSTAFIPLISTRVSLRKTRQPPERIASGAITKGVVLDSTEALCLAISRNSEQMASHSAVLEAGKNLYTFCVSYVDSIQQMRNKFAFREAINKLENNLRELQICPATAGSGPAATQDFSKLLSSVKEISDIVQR
Method: as §1, §2, §3

[26] = target: c-Met (Homo sapiens, UniProt P08581); settings: cell-free
Method: as §1, §2, §3

[27] = target: ErbB2 (Homo sapiens, UniProt P04626); settings: ErbB2, cell-free; means ± SD
Chain of ErbB2 (P04626 720-987 limits assumed): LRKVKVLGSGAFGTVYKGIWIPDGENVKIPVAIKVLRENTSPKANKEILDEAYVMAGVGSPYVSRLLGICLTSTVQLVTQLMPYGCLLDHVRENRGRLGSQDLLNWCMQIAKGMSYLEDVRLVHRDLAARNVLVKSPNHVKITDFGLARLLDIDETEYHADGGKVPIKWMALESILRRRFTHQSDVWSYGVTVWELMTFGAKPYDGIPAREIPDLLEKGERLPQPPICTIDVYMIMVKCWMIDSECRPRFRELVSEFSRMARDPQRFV
Method: as §1, §2, §3

For `C=CC(=O)Nc1ccc2ncnc(Nc3ccc(OCc4cccc(F)c4)c(Cl)c3)c2c1` [AST1306], the IC50 [1] was > 10 µM, the IC50 [2] was > 10 µM and the IC50 [3] was > 10 µM. For the same molecule, the IC50 [4] was > 10 µM, the IC50 [5] was > 10 µM and the IC50 [6] was > 10 µM. The IC50 [7] was > 10 µM, the “EGF-induced EGFR phosphorylation (phospho-EGFR bands)” value [8] was “almost disappeared” and the IC50 [9] was 12 ± 2 nM. The IC50 [10] was 0.5 ± 0.2 nM, the IC50 [11] was > 10 µM and the IC50 [12] was > 10 µM. For the same molecule, the IC50 [13] was > 10 µM, the IC50 [14] was > 10 µM and the IC50 [15] was > 10 µM. The IC50 [16] was > 10 µM, the IC50 [17] was > 10 µM and the IC50 [18] was > 10 µM. For the same molecule, the IC50 [19] was > 10 µM, the IC50 [20] was > 10 µM and the IC50 [21] was > 10 µM. The IC50 [22] was > 10 µM, the IC50 [23] was > 10 µM and the IC50 [24] was > 10 µM. For the same molecule, the IC50 [25] was > 10 µM, the IC50 [26] was > 10 µM and the IC50 [27] was 3 ± 1.5 nM.

Reference: article PMC3138742 (PLoS ONE, 2011)
